How the values were obtained:
[1] = test system: primary cultures of responsive tumors; experiment: Primary cultures of responsive tumors of the MPA model; format: cell-based, mouse
C4-2-HI and 59-HI cells = experiment: (3H)-thymidine incorporation with 5azadC and RU-486 in 10% FCS; format: cell-based, mouse; settings: 5 μM 5azadC, 100 nM RU-486; P<0.001
Protocol: (3H)-thymidine-uptake was used as an indirect method to evaluate cell proliferation. In brief, cells were seeded into 96-well microplates. After attachment (24 h), the cells were incubated for 24 h with 1% steroid-stripped FCS and then for 48 h with the experimental solutions to be tested in 1% chFCS. Fifty percent of the medium was replaced with fresh medium every 24 h. […] In experiments in which 5azadC was used, the experiments were carried out using proliferating cells (presence of 10% FCS) to guarantee the effect of the demethylating agent. Three different experiments were made using octuplicates, and the means and standard deviations of one representative experiment of the other three are shown.

59-2-HI tumor = experiment: MPA breast cancer model, responsive tumor in vivo; settings: mouse
PR = biological target: T1, PR (Homo sapiens, UniProt P06401); settings: T47D cells transfected with MMTV-CAT; cited from earlier work
T1 sequence (P06401 1-933): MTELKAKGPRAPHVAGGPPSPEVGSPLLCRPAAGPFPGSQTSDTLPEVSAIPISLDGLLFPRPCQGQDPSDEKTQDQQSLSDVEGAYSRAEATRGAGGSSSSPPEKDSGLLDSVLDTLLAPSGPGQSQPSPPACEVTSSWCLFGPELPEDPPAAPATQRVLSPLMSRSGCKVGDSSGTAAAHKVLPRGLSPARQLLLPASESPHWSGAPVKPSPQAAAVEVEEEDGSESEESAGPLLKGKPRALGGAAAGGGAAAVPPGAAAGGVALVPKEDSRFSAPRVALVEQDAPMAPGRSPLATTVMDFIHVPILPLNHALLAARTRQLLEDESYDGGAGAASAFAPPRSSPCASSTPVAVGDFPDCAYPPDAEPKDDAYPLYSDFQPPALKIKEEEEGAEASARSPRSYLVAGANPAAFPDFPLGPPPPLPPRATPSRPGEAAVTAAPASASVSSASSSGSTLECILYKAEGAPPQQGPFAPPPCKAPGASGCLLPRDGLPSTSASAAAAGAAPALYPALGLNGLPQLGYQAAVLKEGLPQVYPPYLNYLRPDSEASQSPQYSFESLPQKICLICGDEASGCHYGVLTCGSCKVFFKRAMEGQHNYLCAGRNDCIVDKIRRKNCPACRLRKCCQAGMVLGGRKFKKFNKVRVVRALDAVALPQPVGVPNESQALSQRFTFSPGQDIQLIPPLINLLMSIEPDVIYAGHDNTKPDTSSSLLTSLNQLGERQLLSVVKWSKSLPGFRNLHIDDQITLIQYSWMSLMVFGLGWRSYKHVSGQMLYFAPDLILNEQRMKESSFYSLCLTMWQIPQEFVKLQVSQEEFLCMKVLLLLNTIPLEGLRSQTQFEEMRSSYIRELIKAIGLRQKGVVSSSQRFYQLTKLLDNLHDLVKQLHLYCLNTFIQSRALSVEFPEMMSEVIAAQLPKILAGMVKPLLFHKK

C4-2-HI tumors = experiment: Constitutive-resistant tumor transplanted s.c. in BALB/c mice; format: in vivo, mouse
Protocol: (§1) C4-2-HI, 59-HI, and C4-HIR tumors were transplanted s.c nearby the mammary gland 4th in syngenic mice, and measured every 2 days (length and width). Treatments were initiated when the tumors were palpable. […] The mice were inoculated intraperitoneally (i.p.) with 0.75 mg/kg 5azadC (for C4-2-HI and C4-HIR tumors) or 1 mg/kg 5azadC (for 59-HI tumors) every other day. All the experiments were repeated twice using five mice per group. The animals were euthanized after 13 days of treatment, and tumor samples were removed and frozen at −80° C. or fixed in 10% formaldehyde.
(§2) Cytosolic or nuclear extracts were processed for western blots as described previously. The cells were lysed using Mammalian Protein Extraction Reagent (Pierce, Rockford, Ill.) according the manufacturer's instructions. The western blot membranes were incubated with antibodies against PR (C-19, Santa Cruz Biotech, CA, or Ab-7, Neomarkers, Lab Vision Corp, Fremont, Calif.), PRB (Ab-6, Neomarkers), ERKs (SC-94, Santa Cruz Biotech), E-Cad (610182, BD), Actin (1-19, Santa Cruz Biotech), DnmtI, Dnmt3a and Dnmt3b (H-300, H-295, and H-230, respectively, Santa Cruz Biotech), RARβ (SC-14028, Santa Cruz Biotech), PTEN Ab32199, Abcam), p16 (SC-1207, Santa Cruz Biotech), Rb (SC-50, Santa Cruz Biotech), or glucocorticoid receptors (GRs) (SC-1004, Santa Cruz Biotech) overnight at 4° C., at a concentration of 2 μg/ml in PBST (0.8% NaCl, 0.02% KCl, 0.144% Na2PO4, 0.024% KH2PO4, pH 7.4, 0.1% Tween 20). The band intensities from 3 to 4 different tumor samples indifferent western blots were quantified using Image Quant software.
(§3) Sections of formalin-fixed, paraffin-embedded tissue were processed as previously described and stained with the PRA-specific antibody (C-19) using the avidin-biotin-peroxidase complex technique (Vectastain Elite ABC kit; Vector), as described previously.
(§4) H&E stained sections of livers, spleens, and kidneys from the 5azadC-treated mice (1 mg/kg or 0.75 mg/kg/every other day; n=5) were studied by an expert mouse pathologist. The percentage of tumor stoma versus tumor parenchyma was quantified with the ImageJ software in treated and untreated tumors. The stromal area in relation to the total tumor area was calculated in five representative fields of each sample, using 400× magnification, in three different tumor samples of each group, and the mean±SEM was calculated. Mitotic and apoptotic indices were counted in 10 and 15 high-power fields (HPFs), respectively, of each section, using 1000× magnification, and expressed as the mean±SEM of the percentage of the ratios between the total number of events (mitosis or apoptosis) and the total cell number per HPF. Mitotic figures were identified morphologically by the condensed “hairy” aspect of the chromosomes. Morphological identification of apoptosis was performed according to criteria previously reported, which correlated with the deoxynucleotidyl transferase mediated dUTP-biotin nick end labeling (TUNEL) method.
as §1, with “C4-2-HI” for “C4-2-HI, 59-HI,”, “59-HI” for “C4-HIR”, “every other day” for “(for C4-2-HI”, “s.c. with” for “C4-HIR tumors) or”, “TSA” for “5azadC (for 59-HI tumors)”, “−80 C” for “−80° C.”

59-HI tumors = experiment: as above; format: in vivo, mouse; settings: RU-486 12 mg/kg/day s.c.; 5azadC 1 mg/kg every other day i.p.; 13 days
Protocol: as §1, §2, §3, §4
as §1, with “C4-2-HI” for “C4-2-HI, 59-HI,”, “59-HI” for “C4-HIR”, “every other day” for “(for C4-2-HI”, “s.c. with” for “C4-HIR tumors) or”, “TSA” for “5azadC (for 59-HI tumors)”, “−80 C” for “−80° C.”

## CC#C[C@]1(O)CC[C@H]2[C@@H]3CCC4=CC(=O)CCC4=C3[C@@H](c3ccc(N(C)C)cc3)C[C@@]21C [RU-486, mifepristone]
[1]
  ERK phosphorylation: increased ERK phosphorylation
C4-2-HI and 59-HI cells
  cell proliferation, (3H)-thymidine incorporation: did not alter cell proliferation
59-2-HI tumor
  tumor regression (histology): the tumor regresses
PR
  effect in cells treated with analogs of cyclic AMP: exerts an agonistic effect
C4-2-HI tumors; RU-486 12 mg/kg/day s.c., 5azadC 0.75 mg/kg every other day i.p., 13 days
  tumor growth: no significant differences
C4-2-HI tumors; tumor only expresses PR-B, FIG. 15
  tumor growth, MIF alone: stimulated
59-HI tumors
  tumor growth: no significant differences
